Values after ≈ are worked out from the molar mass of the structure shown.
Assays:
[1] = Selectivity ratio of GI50 for cytotoxicity against human DU-145 cells to GI50 for cytotoxicity against human PC-3 cells by MTT assay; type: functional
[2] = target: Bcl-2-like protein 1 (Homo sapiens) (UniProt Q07817); assay: Binding affinity to recombinant human Bcl-xL assessed as change in enthalpy by MM-PBSA method
[3] = system: PC-3; assay: Cytotoxicity against human PC-3 cells assessed as cell growth inhibition measured after 48 hrs by MTT assay; type: functional
[4] = Antioxidant activity assessed as DPPH radical scavenging activity after 30 mins under dark condition; type: functional
[5] = system: MDA-MB-231; assay: Antiproliferative activity against human MDA-MB-231 cells assessed as cell growth inhibition measured after 48 hrs by MTT assay relative to control; type: functional; set-up: scale not given: the % may be the effect or the level left
[6] = system: MDA-MB-231; assay: Antiproliferative activity against human MDA-MB-231 cells assessed as cell growth inhibition measured after 48 hrs by MTT assay; type: functional, cell-based; settings: MDA-MB-231, 48 h
[7] = system: Candida albicans; assay: Antifungal activity against Candida albicans 527/14 assessed as fungal growth inhibition measured after 24 hrs by microdilution assay; type: functional
[8] = system: Candida albicans; assay: Antifungal activity against Candida albicans 13/15 assessed as fungal growth inhibition measured after 24 hrs by microdilution assay; type: functional
[9] = Antioxidant activity assessed as ABTS radical scavenging activity at 10 wt% incubated for 6 mins in presence of Si and PCL50 by UV spectrophotometer analysis relative to control; type: functional
[10] = Antioxidant activity assessed as DPPH radical scavenging activity up to 2 mM relative to control; type: functional
[11] = system: MCF7; assay: Antiproliferative activity against human MCF7 assessed as reduction in cell viability incubated for 48 hrs by MTT assay; type: functional
[12] = Metal chelating activity assessed as Zn2+-compound complex formation by measuring binding energy
[13] = Competitive inhibition of xanthine oxidase (unknown origin) at 0.4 uM using xanthine as substrate preincubated with substrate for 1 min followed by compound addition by double beam spectrophotometer analysis relative to control
[14] = system: MCF7; assay: Induction of apoptosis in human MCF7 cells assessed as early apoptotic cells at 50 uM measured after 12 hrs by annexin V-FITC/propidium iodide staining based flow cytometry relative to control; type: functional
[15] = system: J774.A1; assay: Inhibition of LPS-induced NO production in mouse J774.A1 cells pre-incubated with compound for 1 hr followed by LPS stimulation for 24 hrs by ELISA assay; type: functional, cell-based
[16] = Metal chelating activity assessed as compound-Cu2+ complex formation by measuring binding energy
[17] = target: Urease subunit alpha/Urease subunit beta (Helicobacter pylori (strain ATCC 700392 / 26695) (Campylobacterpylori), UniProt P69996); assay: Inhibition of Helicobacter pylori urease assessed as measuring ammonia production incubated for 1.5 hr by indophenol method; type: protein-complex assay
Urease subunit alpha/Urease subunit beta, sequence (P69996 whole entry): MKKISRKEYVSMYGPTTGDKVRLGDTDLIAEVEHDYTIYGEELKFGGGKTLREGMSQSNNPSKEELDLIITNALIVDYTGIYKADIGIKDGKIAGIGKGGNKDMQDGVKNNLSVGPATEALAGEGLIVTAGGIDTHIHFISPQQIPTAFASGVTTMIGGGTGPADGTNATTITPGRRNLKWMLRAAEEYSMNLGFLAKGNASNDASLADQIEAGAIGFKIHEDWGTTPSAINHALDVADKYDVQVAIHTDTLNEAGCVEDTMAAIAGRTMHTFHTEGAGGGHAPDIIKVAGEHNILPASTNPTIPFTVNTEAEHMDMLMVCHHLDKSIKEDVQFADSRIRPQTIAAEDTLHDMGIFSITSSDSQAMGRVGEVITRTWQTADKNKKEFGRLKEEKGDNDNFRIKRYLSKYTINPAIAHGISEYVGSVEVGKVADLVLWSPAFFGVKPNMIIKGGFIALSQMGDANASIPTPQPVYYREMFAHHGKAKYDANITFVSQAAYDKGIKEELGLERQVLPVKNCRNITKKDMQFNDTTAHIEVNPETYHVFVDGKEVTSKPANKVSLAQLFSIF
Urease subunit alpha/Urease subunit beta, sequence (P14916 whole entry, further chain): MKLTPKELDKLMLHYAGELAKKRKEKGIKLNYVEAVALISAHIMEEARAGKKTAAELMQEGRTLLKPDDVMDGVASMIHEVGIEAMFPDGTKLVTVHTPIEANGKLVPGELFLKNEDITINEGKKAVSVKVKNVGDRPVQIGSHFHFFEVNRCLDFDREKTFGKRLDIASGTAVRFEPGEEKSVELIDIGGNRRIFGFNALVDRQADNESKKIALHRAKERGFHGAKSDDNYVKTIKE

[18] = Antioxidant activity assessed as ABTS radical scavenging activity at 15 wt% incubated for 6 mins in presence of Si and PCL50 by UV spectrophotometer analysis relative to control; type: functional
[19] = Non-competitive inhibition of xanthine oxidase (unknown origin) at 0.4 uM using xanthine as substrate preincubated with substrate for 1 min followed by compound addition by double beam spectrophotometer analysis relative to control
[20] = system: Candida albicans; assay: Antifungal activity against Candida albicans 10/15 assessed as fungal growth inhibition measured after 24 hrs by microdilution assay; type: functional
[21] = Antioxidant activity assessed as ABTS radical scavenging activity at 5 wt% incubated for 6 mins in presence of Si and PCL50 by UV spectrophotometer analysis relative to control; type: functional
[22] = Metal chelating activity assessed as compound-Fe2+ complex formation by measuring binding energy
[23] = system: Candida albicans; assay: Antifungal activity against Candida albicans 475/15 assessed as fungal growth inhibition measured after 24 hrs by microdilution assay; type: functional
[24] = target: UDP-galactopyranose mutase (Mycobacterium tuberculosis, UniProt P9WIQ1); assay: Binding affinity to Mycobacterium tuberculosis UGM assessed as dissociation constant by fluorescence polarization assay
UDP-galactopyranose mutase, sequence (P9WIQ1 whole entry): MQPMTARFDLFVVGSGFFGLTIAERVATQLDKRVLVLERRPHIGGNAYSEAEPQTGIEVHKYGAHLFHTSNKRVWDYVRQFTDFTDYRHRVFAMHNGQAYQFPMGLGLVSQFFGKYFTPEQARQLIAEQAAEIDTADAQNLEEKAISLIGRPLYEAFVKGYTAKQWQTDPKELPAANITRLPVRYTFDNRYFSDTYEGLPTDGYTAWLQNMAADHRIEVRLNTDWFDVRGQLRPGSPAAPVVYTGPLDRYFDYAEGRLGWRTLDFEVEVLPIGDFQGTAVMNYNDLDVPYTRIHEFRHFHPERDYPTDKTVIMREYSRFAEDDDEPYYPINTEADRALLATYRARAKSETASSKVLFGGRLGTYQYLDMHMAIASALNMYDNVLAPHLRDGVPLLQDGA

[25] = target: UDP-galactopyranose mutase (Mycobacterium tuberculosis) (UniProt P9WIQ1); assay: Inhibition of Mycobacterium tuberculosis UGM at 20 uM by HPLC inhibition assay relative to control
UDP-galactopyranose mutase (Mycobacterium tuberculosis), sequence (P9WIQ1 whole entry, looked up): as the sequence (P9WIQ1 whole entry) above

[26] = target: Type-1 angiotensin II receptor (Homo sapiens, UniProt P30556); assay: Inhibition of human AT1R expressed in HEK293 cells by non-linear regression analysis; type: cell-based
Type-1 angiotensin II receptor, sequence (P30556 whole entry): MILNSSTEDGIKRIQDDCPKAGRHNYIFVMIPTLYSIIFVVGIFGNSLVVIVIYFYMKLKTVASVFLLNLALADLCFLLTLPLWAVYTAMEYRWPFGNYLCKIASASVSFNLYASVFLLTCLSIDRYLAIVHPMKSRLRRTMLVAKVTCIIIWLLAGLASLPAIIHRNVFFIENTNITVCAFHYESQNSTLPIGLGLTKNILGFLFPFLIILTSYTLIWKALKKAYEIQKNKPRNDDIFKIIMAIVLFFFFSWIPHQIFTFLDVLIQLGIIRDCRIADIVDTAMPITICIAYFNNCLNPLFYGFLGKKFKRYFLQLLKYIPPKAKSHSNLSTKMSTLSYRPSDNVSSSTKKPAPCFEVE

[27] = Inhibition of Escherichia coli topoisomerase 4 decatenation activity by gel electrophoresis
[28] = Inhibition of Escherichia coli topoisomerase 2 supercoiling activity by gel electrophoresis
[29] = system: Staphylococcus gallinarum; assay: Antibacterial activity against Staphylococcus gallinarum ATCC 9184 assessed as cell growth inhibition by agar dilution method; type: functional
[30] = system: Listeria monocytogenes; assay: Antibacterial activity against Listeria monocytogenes ATCC 15313 assessed as cell growth inhibition by agar dilution method; type: functional
[31] = system: Staphylococcus aureus; assay: Antibacterial activity against Staphylococcus aureus ATCC 12600 assessed as cell growth inhibition by agar dilution method; type: functional
[32] = system: Escherichia coli; assay: Antibacterial activity against Escherichia coli ATCC 25922 assessed as cell growth inhibition by agar dilution method; type: functional
[33] = system: Klebsiella pneumoniae; assay: Antibacterial activity against Klebsiella pneumoniae ATCC 13883 assessed as cell growth inhibition incubated for 18 hrs by agar overlay method; type: functional
[34] = system: Bacillus cereus; assay: Antibacterial activity against Bacillus cereus NAS 596 assessed as cell growth inhibition incubated for 18 hrs by agar overlay method; type: functional
[35] = system: Proteus mirabilis; assay: Antibacterial activity against Proteus mirabilis assessed as cell growth inhibition incubated for 18 hrs by agar overlay method; type: functional
[36] = system: Escherichia coli; assay: Antibacterial activity against Escherichia coli ATCC 25922 assessed as cell growth inhibition incubated for 18 hrs by agar overlay method; type: functional
[37] = system: Bacillus subtilis; assay: Antibacterial activity against Bacillus subtilis ATCC 6633 assessed as cell growth inhibition incubated for 18 hrs by agar overlay method; type: functional
[38] = system: Heyndrickxia coagulans; assay: Antibacterial activity against Bacillus coagulans assessed as cell growth inhibition incubated for 18 hrs by agar overlay method; type: functional
[39] = system: Enterobacter cloacae; assay: Antibacterial activity against Enterobacter cloacae assessed as cell growth inhibition incubated for 18 hrs by agar overlay method; type: functional
[40] = system: Staphylococcus aureus; assay: Antibacterial activity against Staphylococcus aureus ATCC 6538 assessed as cell growth inhibition incubated for 18 hrs by agar overlay method; type: functional

Bcl-2-like protein 1 (Homo sapiens), sequence (Q07817 whole entry): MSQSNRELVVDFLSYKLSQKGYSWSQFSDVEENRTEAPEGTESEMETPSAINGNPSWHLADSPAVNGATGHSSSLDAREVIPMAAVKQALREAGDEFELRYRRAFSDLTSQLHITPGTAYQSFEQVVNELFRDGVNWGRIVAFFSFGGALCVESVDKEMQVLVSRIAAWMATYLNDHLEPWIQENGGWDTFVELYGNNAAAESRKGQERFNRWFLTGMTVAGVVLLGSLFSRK

O=C(O)CC[C@H](NC(=O)Oc1ccc(-c2oc3cc(O)cc(O)c3c(=O)c2O)cc1O)C(=O)O
RatioGI50 [1]: 17
deltaH [2]: 47.2 kcal/mol
GI50 [3]: 6 µM

COc1cc(OC)c2c(=S)c(OC)c(-c3ccc(OC)c(OC)c3)oc2c1
IC50 [4]: 360 µM

COc1cc(OC)c2/c(=N/c3ccccc3)c(OC)c(-c3ccc(OC)c(OC)c3)oc2c1
IC50 [4]: 490 µM

COc1cc(OC)c2c(=O)c(OC)c(-c3ccc(OC)c(OC)c3)oc2c1
Activity [5]: 43.7%
IC50 [6]: 2.04 µM
IC50 [4]: 620 µM

O=c1c(O)c(-c2ccc(O)c(O)c2)oc2cc(O)cc(O)c12 [QUERCETIN]
MIC [7]: 37.5 µg/mL (≈ 124 µM)
MIC [8]: 37.5 µg/mL (≈ 124 µM)
Activity [9]: 24.7%
Activity [10]: 80%
Activity [11]: 70.8%
Activity [12]: 939 kcal/mol
inhibition [13]: 50%
Activity [14]: 44.1%
IC50 [15]: 49.1 µM
Activity [16]: 918 kcal/mol
Ki [17]: 9.34 µM
Activity [18]: 8.4%
inhibition [19]: 50%
IC50 [4]: 4 µM
MIC [20]: 37.5 µg/mL (≈ 124 µM)
Activity [21]: 15.6%
Activity [22]: 694 kcal/mol
MIC [23]: 37.5 µg/mL (≈ 124 µM)

O=c1c(O)c(-c2ccc(O)c(O)c2)oc2c(CN3CCCCC3)c(O)cc(O)c12
Kd [24]: > 2000 µM
inhibition [25]: 23.2%

COc1cc(OC)c2/c(=N/N)c(OC)c(-c3ccc(OC)c(OC)c3)oc2c1
IC50 [4]: 40 µM

COc1cc(-c2oc3cc(O)cc(O)c3c(=O)c2O[C@@H]2O[C@H](C(=O)[O-])[C@@H](O)[C@H](O)[C@H]2O)ccc1O.[Na+]
Activity [11]: 49.8%

CCCCc1nc(Cl)c(COC(=O)CCC(=O)Oc2ccc(-c3oc4cc(O)cc(O)c4c(=O)c3O)cc2O)n1Cc1ccc(-c2ccccc2-c2nnn[nH]2)cc1
IC50 [26]: 0.14 µM

O=c1c(O)c(-c2ccc(O)c(O)c2)oc2c(CN3CCCC3)c(O)cc(O)c12
Kd [24]: > 2000 µM
inhibition [25]: 47.8%

CC(=O)OC[C@H]1OC(OC(C)=O)[C@H](NCc2c(O)cc(O)c3c(=O)cc(-c4ccc(O)c(O)c4)oc23)[C@@H](OC(C)=O)[C@@H]1OC(C)=O (some centres not stated)
IC50 [27]: 0.25 µg/mL (≈ 0.387 µM)
IC50 [28]: 0.25 µg/mL (≈ 0.387 µM)
MIC [29]: 0.05 µg/mL (≈ 0.0775 µM)
MIC [30]: 0.5 µg/mL (≈ 0.775 µM)
MIC [31]: 1 µg/mL (≈ 1.55 µM)
MIC [32]: 2 µg/mL (≈ 3.1 µM)

COc1cc(OC)c2/c(=N/c3cc(OC)c(OC)c(OC)c3)c(OC)c(-c3ccc(OC)c(OC)c3)oc2c1
IC50 [4]: 220 µM

C[C@@H]1O[C@@H](OC[C@H]2O[C@@H](Oc3c(-c4ccc(O)c(O)c4)oc4cc(O)cc(O)c4c3=O)[C@H](O)[C@@H](O)[C@@H]2O)[C@H](O)[C@H](O)[C@H]1O [RUTIN]
MIC [7]: 37.5 µg/mL (≈ 61.4 µM)
MIC [8]: 37.5 µg/mL (≈ 61.4 µM)
MIC [20]: 37.5 µg/mL (≈ 61.4 µM)
MIC [23]: 37.5 µg/mL (≈ 61.4 µM)

O=c1c(O)c(-c2ccccc2)oc2cc(O)cc(O)c12 [GALANGIN]
MIC [33]: 0.25 µg/mL (≈ 0.925 µM)
MIC [34]: 0.25 µg/mL (≈ 0.925 µM)
MIC [35]: 0.25 µg/mL (≈ 0.925 µM)
MIC [36]: 0.25 µg/mL (≈ 0.925 µM)
MIC [37]: 0.25 µg/mL (≈ 0.925 µM)
MIC [38]: 0.25 µg/mL (≈ 0.925 µM)
MIC [39]: 0.25 µg/mL (≈ 0.925 µM)
MIC [40]: 0.25 µg/mL (≈ 0.925 µM)
